Measurements as given in PMC8198038, “In Vitro Evaluation of Antiproliferative Properties of Novel Organotin(IV) Carboxylate Compounds with Propanoic Acid Derivatives on a Panel of Human Cancer Cell Lines” (Molecules, 2021).

Key:
[1] = system: HT-29 (human colorectal adenocarcinoma) cells; test: MTT assay, HT-29 cells; type: cell-based; conditions: read-out: IC50 (mean ± SD), HT-29, MTT
Method: (§1) The cell proliferations of ligand precursors and organotin(IV) compounds were evaluated with the aid of MTT (3-(4,5-dimethylthiazol-2-yl)-2,5-12 diphenyltetrazolium bromide) and CV (crystal violet) assays toward prostate (PC-3), colon (HT-29), breast (MCF-7) and hepatic (HepG2) cancer cell lines, and normal mouse embryonic fibroblast cells (NIH 3T3). The cells were cultivated in T75 flasks containing 10 mL of complete medium and kept at 37 °C and 5% CO2 […]. The nutrient medium was RPMI-1640 (PAA Laboratories) supplemented with 10% foetal bovine serum, L-glutamine, and penicillin/streptomycin (Sigma). Afterward, 5.000 cells of PC-3 and MCF-7 and 1.500 cells of HT-29 and HepG2 were transferred into 96 well-plates and used for MTT and CV assays. For microscopy investigations as well as FACS measurements (except for ROS/RNS measurements), MCF-7 cells were seeded overnight in 6-well plates (150,000 cells/well) in […] of complete medium. […] In all assays, control cells were untreated MCF-7 cells incubated for the same time period as treated cells and treated with appropriate reagents in various assays. BD FACS Aria III was used for flow cytometry experiments and results were analysed using BD FACSDiva software (BD Biosciences, Heidelberg, Germany) and Cyflogic (V 1.2.1, CyFlo Ltd., Turku, Finland). A fluorescence microscope Invitrogen EVOS FL 2 Auto 2 Cell Imaging System was used for visualization of the cells as well as for detection of fluorescence in the cells.
(§2) Ligands HL1‒HL3, organotin(IV) compounds, and cisplatin were investigated in 9 different concentrations (100, 50, 10, 5, 1, 0.5, 0.1, 0.05, 0.01 μM). Using the complete medium, each stock solution of the test compounds (20 mM in DMSO) was diluted to obtain the working solution. The final concentration of DMSO never overstepped 0.5%, which is non-toxic to the cells. Three technical replicates were performed for each concentration. The treated cells were incubated for 48 h at 37 °C under 5% CO2 and the viability of the cells was determined using MTT and CV assays according to the literature procedure. The IC50 values, defined as 50% inhibitory concentration, were calculated with a four-parameter logistic function and presented in a mean. All experiments were performed in triplicate.

[2] = system: PC-3, HT-29, MCF-7 and HepG2 tumour cell lines; test: MTT and CV assays, panel of four tumour cell lines; type: cell-based, human; conditions: applied concentrations up to 100 µM, 48 h
Method: The in vitro anticancer activity of ligand precursors, HL1–HL3 and its organotin(IV) compounds was tested in a panel of four tumour cell lines: PC3 (prostate cancer cells), HT-29 (colon cancer cells), MCF-7 (breast cancer cells), and HepG2 (hepatic cancer cells), as well as on normal NIH3T3 cells (mouse embryonic fibroblast) using MTT and CV assays after 48 h of incubation.
The cell proliferations of ligand precursors and organotin(IV) compounds were evaluated with the aid of MTT (3-(4,5-dimethylthiazol-2-yl)-2,5-12 diphenyltetrazolium bromide) and CV (crystal violet) assays toward prostate (PC-3), colon (HT-29), breast (MCF-7) and hepatic (HepG2) cancer cell lines, and normal mouse embryonic fibroblast cells (NIH 3T3). The cells were cultivated in T75 flasks containing 10 mL of complete medium and kept at 37 °C and 5% CO2 […]. The nutrient medium was RPMI-1640 (PAA Laboratories) supplemented with 10% foetal bovine serum, L-glutamine, and penicillin/streptomycin (Sigma). Afterward, 5.000 cells of PC-3 and MCF-7 and 1.500 cells of HT-29 and HepG2 were transferred into 96 well-plates and used for MTT and CV assays. For microscopy investigations as well as FACS measurements (except for ROS/RNS measurements), MCF-7 cells were seeded overnight in 6-well plates (150,000 cells/well) in […] of complete medium. […] BD FACS Aria III was used for flow cytometry experiments and results were analysed using BD FACSDiva software (BD Biosciences, Heidelberg, Germany) and Cyflogic (V 1.2.1, CyFlo Ltd., Turku, Finland). A fluorescence microscope Invitrogen EVOS FL 2 Auto 2 Cell Imaging System was used for visualization of the cells as well as for detection of fluorescence in the cells.
Ligands HL1‒HL3, organotin(IV) compounds, and cisplatin were investigated in 9 different concentrations (100, 50, 10, 5, 1, 0.5, 0.1, 0.05, 0.01 μM). […] The treated cells were incubated for 48 h at 37 °C under 5% CO2 and the viability of the cells was determined using MTT and CV assays according to the literature procedure. […]

[3] = system: NIH3T3 (normal mouse embryonic fibroblast) cells; test: MTT assay, NIH3T3 cells; type: cell-based; conditions: read-out: IC50 (mean ± SD), NIH3T3, MTT
Method: as §1, §2

[4] = system: HepG2 (hepatocellular cancer) cells; test: MTT assay, HepG2 cells; type: cell-based, human; conditions: read-out: IC50 (mean ± SD), HepG2, MTT
Method: as §1, §2

[5] = system: NIH3T3 (normal mouse embryonic fibroblast) cells; test: CV (crystal violet) assay, NIH3T3 cells; type: cell-based; conditions: read-out: IC50 (mean ± SD), NIH3T3, CV
Method: as §1, §2

[6] = system: MCF-7 (breast cancer) cells; test: CV (crystal violet) assay, MCF-7 cells; type: cell-based, human; conditions: read-out: IC50 (mean ± SD), MCF-7, CV
Method: as §1, §2

[7] = system: HepG2 (hepatocellular cancer) cells; test: CV (crystal violet) assay, HepG2 cells; type: cell-based, human; conditions: read-out: IC50 (mean ± SD), HepG2, CV
Method: as §1, §2

[8] = system: MCF-7 (breast cancer) cells; test: MTT assay, MCF-7 cells; type: cell-based, human; conditions: for IC50: read-out: IC50 (mean ± SD), MCF-7, MTT
Method: as §1, §2

[9] = system: PC-3 (human prostate cancer) cells; test: MTT assay, PC-3 cells; type: cell-based; conditions: read-out: IC50 (mean ± SD), PC-3, MTT
Method: as §1, §2

[10] = system: HT-29 (human colorectal adenocarcinoma) cells; test: CV (crystal violet) assay, HT-29 cells; type: cell-based; conditions: read-out: IC50 (mean ± SD), HT-29, CV
Method: as §1, §2

[11] = system: PC-3 (human prostate cancer) cells; test: CV (crystal violet) assay, PC-3 cells; type: cell-based; conditions: read-out: IC50 (mean ± SD), PC-3, CV
Method: as §1, §2

[12] = Homo sapiens, HT-29, MTT assay, 48 h incubation
[13] = Mus musculus, NIH3T3, MTT assay, 48 h incubation, normal cells
[14] = Homo sapiens, HepG2, MTT assay, 48 h incubation
[15] = Mus musculus, NIH3T3, CV assay, 48 h incubation, normal cells
[16] = Homo sapiens, MCF7, CV assay, 48 h incubation
[17] = Homo sapiens, HepG2, CV assay, 48 h incubation
[18] = Homo sapiens, MCF7, MTT assay, 48 h incubation
[19] = Homo sapiens, PC-3, MTT assay, 48 h incubation
[20] = Homo sapiens, HT-29, CV assay, 48 h incubation
[21] = Homo sapiens, PC-3, CV assay, 48 h incubation
[22] = MTT assay, 48 h incubation, normal cells
[23] = CV assay, 48 h incubation, normal cells

IC50 [1, 12] [nM]	IC50 [4, 14] [nM]	IC50 [6, 16] [nM]	IC50 [7, 17] [nM]	IC50 [8, 18] [nM]	IC50 [9, 19] [nM]	IC50 [10, 20] [nM]	IC50 [11, 21] [nM]	Compound	influence on cell proliferation [2]	IC50 [3, 13] [nM]	IC50 [5, 15] [nM]	IC50 ([1]; MTT assay, 48 h incubation) [nM]	IC50 [3, 22] [nM]	IC50 ([4]; MTT assay, 48 h incubation) [nM]	IC50 [5, 23] [nM]	IC50 ([6]; CV assay, 48 h incubation) [nM]	IC50 ([7]; CV assay, 48 h incubation) [nM]	IC50 ([8]; MTT assay, 48 h incubation) [nM]	IC50 ([9]; MTT assay, 48 h incubation) [nM]	IC50 ([10]; CV assay, 48 h incubation) [nM]	other results
–	–	–	–	–	–	–	–	O=C(O)CCc1nc(-c2ccccc2)c(-c2ccccc2)o1 [HL1, 3-(4,5-diphenyloxazol-2-yl)propanoic acid, reference compound]	did not affect cell proliferation in any cancer cell line tested	–	–	–	–	–	–	–	–	–	–	–	IC50 ([1]; Homo sapiens, HT-29, 48 h): > 100000 nM; IC50 ([3]; Mus musculus, NIH3T3, 48 h): > 100000 nM; IC50 ([4]; Homo sapiens, HepG2, 48 h): > 100000 nM; IC50 ([5]; Mus musculus, NIH3T3, 48 h): > 100000 nM; IC50 ([6]; Homo sapiens, MCF7, 48 h): > 100000 nM; IC50 ([7]; Homo sapiens, HepG2, 48 h): > 100000 nM; IC50 ([8]; Homo sapiens, MCF7, 48 h): > 100000 nM; IC50 ([9]; Homo sapiens, PC-3, 48 h): > 100000 nM; IC50 ([10]; Homo sapiens, HT-29, 48 h): > 100000 nM; IC50 ([11]; Homo sapiens, PC-3, 48 h): > 100000 nM
> 100000	> 100000	> 100000	> 100000	> 100000	> 100000	> 100000	> 100000	COc1ccc(-c2nc(CCC(=O)O)oc2-c2ccc(OC)cc2)cc1 [HL2, 3-(4,5-bis(4-Methoxylphenyl)oxazol-2-yl)propanoic acid]	did not affect cell proliferation in any cancer cell line tested	> 100000	> 100000	–	–	–	–	–	–	–	–	–	–
> 100000	> 100000	> 100000	> 100000	> 100000	> 100000	> 100000	> 100000	O=C(O)CCN1C(=O)NC(c2ccccc2)(c2ccccc2)C1=O [HL3, 3-(2,5-Dioxo-4,4-diphenylimidazolidin-1-yl)propanoic acid]	did not affect cell proliferation in any cancer cell line tested	> 100000	> 100000	–	–	–	–	–	–	–	–	–	–
–	–	–	–	–	–	–	–	O=C(CCN1C(=O)NC(c2ccccc2)(c2ccccc2)C1=O)[O][Sn]([c]1ccccc1)([c]1ccccc1)[c]1ccccc1 [Ph3SnL3, (3-(2,5-Dioxo-4,4-diphenylimidazolidin-1-yl)propanoato)triphenyltin(IV)]	–	–	–	218 ± 15	1820 ± 990	100 ± 30	2090 ± 1030	219 ± 16	255 ± 85	131 ± 17	211 ± 42	471 ± 48	fold higher activity compared to cisplatin against MCF-7 ([8]; Table 1 IC50 values, 48 h): up to 120 fold; IC50 ([11]; CV assay, 48 h incubation): 458 ± 29 nM
–	–	–	–	–	–	–	–	(3-(4,5-bis(4-Methoxylphenyl)oxazol-2-yl)propanoato)triphenyltin(IV) [Ph3SnL2]	–	–	–	453 ± 63	1990 ± 1120	223 ± 84	2610 ± 520	543 ± 26	628 ± 165	309 ± 59	575 ± 43	727 ± 18	IC50 ([11]; CV assay, 48 h incubation): 785 ± 18 nM
